Source: patent US20200255884A1, “METHOD OF DETECTION OF DNA END(S) AND ITS USE” (INTODNA SP. Z O.O., priority 2017, published 2020)

Tested on: HeLa 21-4 cells
Experiment: DNA ends detection in fixed HeLa cells subjected to damaging agents (H2O2, Tpt), Procedure 1
Type: cell-based
Conditions: 30 min at 37 °C, H2O2 4 mM, Tpt 20 μM
Protocol: Procedure: • 1. Pre-preparation (optional): • Incubation of live cells with 0.5-10 mM Tris (5 min-1 h at room temperature (RT)), cells should be monitored for morphological abnormalities. • 2. Fixation and permeabilization: • a. Incubation with 1%-4% formaldehyde solution, 10-15 min, 4° C. (optional) • b. Incubation with an […] detergent (e.g. Triton X-100 (0.25-3%) 10 min-1 h, RT. (optional) • c. Incubation in 70% ethanol in water, 1 h minimum but preferred 12-18 h, −20° C., sample should be stable for several months. (optional but most preferred) • 3. Pre-blocking (optional): • a. Wash (PBS 1×5 min) • b. Streptavidin solution—incubation performed on a droplet, 30 min, RT • c. Wash (PBS 3×5 min) • d. Biotin solution—incubation performed on a droplet, 30 min, RT • e. Wash (PBS 3×5 min) • 4. Increasing accessibility of DNA ends: • Incubation with 0.5-10 mM EDTA in water, 10 min-1 h, RT. • 5. Incorporation procedure: • Incorporation of unmodified and modified nucleotides (e.g. BrdU) using terminal deoxynucleotidyl transferase: • a. incubation is performed on a droplet in a humid chamber • b. samples are rinsed in wash buffers • 6. Blocking: • Incubation with 1-5% BSA solution in PBS (from 1 h to overnight in 4° C., RT). • 7. Incubation with primary antibodies—performed on a droplet in a humid chamber: • a. primary antibodies type 1 (e.g. mouse monoclonal against BrdU), preferred dilution 1:100 in 1-5% BSA, 1 h, RT • b. wash (PBS 3×5 min) • c. primary antibodies type 2 (e.g. rabbit polyclonal against BrdU), preferred dilution 1:100 in 1-5% BSA, 1 h, RT • d. wash (PBS 3×5 min) • 8. PLA procedure: • a. incubation with PLA Probes diluted in 1% BSA (37° C., 60 min, reaction on a droplet, in a humid chamber) in 40 μl of the reaction mixture per one coverslip: • 8 μl of PLA Probe MINUS stock (e.g. anti-mouse) • 8 μl of PLA Probe PLUS stock (e.g. anti-rabbit) • 24 μl of 1% BSA • b. wash samples with Wash Buffer A (2×5 min) • c. ligation—incubation (37° C., 30 min, reaction on a droplet, in a humid chamber) in 40 μl of the reaction mixture per one coverslip: • 8 μl of 5× Ligation stock (Sigma, Duolink, DUO82009), • 31 μl of ultrapure, RNAse/DNAse free, distilled water, • 1 μl of Ligase (1 U/μl) (Sigma, Duolink, DUO82027 or DUO82029) • d. wash samples with Wash Buffer A (2×2 min) • e. amplification—incubation (37° C., 100 min, reaction performed on a droplet, in a humid chamber) in 40 μl of the reaction mixture per one coverslip: • 8 μl of 5× Amplification stock (Sigma, Duolink, DUO82060 or DUO82011), • 31.5 μl of ultrapure, RNAse/DNAse free, distilled water, • 0.5 μl of Polymerase (10 U/μl) (Sigma, Duolink, DUO82028 or DUO82030) • 9. Imaging of samples in PBS using a fluorescence microscope. […]

Which “percentage of cells that show signs of heavy DNA damage (apoptotic cells) in the population” value (untreated less than 5%) does the source give for `OO` [H2O2] here?
Its value is “approximately 30%”.

What about the “average number of detectable regions of incorporation of BrdU (free ends of DNA) per cell” value (± standard error of the mean) of the same compound?
The value was 31.57±8.61.
